# Test results reported in US20230107642A1 (Erasca, Inc., priority 2020, published 2023).
# Assay: Determination of total drug concentration in rat brain (BBB penetration)
# Type: in vivo
# Settings: male SD rat, 2 mg/kg IV infusion for 4 hours, brain collected at end of 4 hours
# Procedure: BB. Example 9: Determination of Total Drug Concentration in Rat Brain
# In Vivo Experimental Procedures
# Infuse male SD rat at 2 mg/kg dose for 4 hours through IV administration route. Collect brain tissues at the end of 4 hours.
# Sample Preparation Procedures
# Dilute brain tissue by adding homogenization solvent (1:4, w/v). Homogenize diluted brain tissue samples. Extract analyte by adding organic solvent (1:4, v/v) with spiked internal standard. Vortex and centrifuge the samples. Remove supernatant and dilute with HPLC compatible solvent (1:3, v/v).
# Inject diluted extract into LC-MS/MS system using reversed phase high performance liquid chromatography coupled with electrospray ionization and selected reaction monitoring. Determine the total drug concentration in brain samples by quantitating against the standard curve prepared using the same matrix.
# The following data provides blood brain barrier (BBB) penetration activity for a selection of inventive compounds where were directly compared to sotorasib and adagrasib (concentration in brain measured in ng/g).
# Compounds that were measured as having a total concentration in the brain of at least 60 ng/g are indicated as “+”.
row,SMILES,BBB activity
1,"C=CC(=O)N1[C@H](C)CN(c2nc(=O)n3c4c(c(-c5ccc(F)cc5F)c(C(F)(F)F)cc24)SC[C@@H](OCC)C3)C[C@@H]1C (atropisomer, axis not shown) [Example 13-58]",− (Compounds that did not meet this threshold are indicated as “−”)
2,"C=CC(=O)N1[C@H](C)CN(c2nc(=O)n3c4c(c(-c5ccc(F)cc5F)c(C(F)(F)F)cc24)SC[C@@H]3COCOC)C[C@@H]1C (atropisomer, axis not shown) [Example 13-60]",− (Compounds that did not meet this threshold are indicated as “−”)
3,"C=CC(=O)N1[C@H](C)CN(c2nc(=O)n3c4c(c(-c5cc(Cl)c(F)cc5F)c(C(F)(F)F)cc24)SC[C@@H]3COCOC)C[C@@H]1C (atropisomer, axis not shown) [Example 13-62]",− (Compounds that did not meet this threshold are indicated as “−”)
4,"C=CC(=O)N1[C@H](C)CN(c2nc(=O)n3c4c(c(-c5cc(Br)c(F)cc5F)c(C(F)(F)F)cc24)SC[C@@H](OC)C3)C[C@@H]1C (atropisomer, axis not shown) [Example 13-70]",− (Compounds that did not meet this threshold are indicated as “−”)
5,"C=CC(=O)N1C[C@H](C)N(c2nc(=O)n3c4c(c(-c5cc(Cl)c(F)cc5F)c(C(F)(F)F)cc24)SC[C@@H]3CN2C[C@@H]3C[C@H]2CO3)C[C@H]1C (atropisomer, axis not shown) [Example 13-71]",− (Compounds that did not meet this threshold are indicated as “−”)
6,"C=CC(=O)N1[C@H](C)CN(c2nc(=O)n3c4c(c(-c5cc(Cl)c(F)cc5F)c(C(F)(F)F)cc24)SC[C@@H](Nc2ncccn2)C3)C[C@@H]1C (atropisomer, axis not shown) [Example 13-73]",− (Compounds that did not meet this threshold are indicated as “−”)
7,"C=CC(=O)N1[C@H](C)CN(c2nc(=O)n3c4c(c(-c5cc(Cl)c(F)cc5F)c(C(F)(F)F)cc24)SC[C@@H](OCC)C3)C[C@@H]1C (atropisomer, axis not shown) [Example 13-77]",− (Compounds that did not meet this threshold are indicated as “−”)
8,C=CC(=O)N1CCN(c2nc(=O)n3c4c(c(-c5cc(Cl)c(F)cc5F)c(C(F)(F)F)cc24)SC[C@@H]3COC)CC1 [Example 13-5],+ (Compounds that were measured as having a total concentration in the brain of at least 60 ng/g are indicated as “+”)
9,C=C(F)C(=O)N1[C@H](C)CN(c2nc(=O)n3c4c(c(-c5ccc(F)cc5)c(C(F)(F)F)cc24)SC[C@@H](OC)C3)C[C@@H]1C [Example 13-9],+ (Compounds that were measured as having a total concentration in the brain of at least 60 ng/g are indicated as “+”)
10,C=CC(=O)N1[C@H](C)CN(c2nc(=O)n3c4c(c(-c5ccc(F)cc5)c(C(F)(F)F)cc24)SC[C@@H]3COC)C[C@@H]1C [Example 13-10],+ (Compounds that were measured as having a total concentration in the brain of at least 60 ng/g are indicated as “+”)
11,C=CC(=O)N1[C@H](C)CN(c2nc(=O)n3c4c(c(-c5ccc(F)cc5F)c(C(F)(F)F)cc24)SC[C@@H]3COC)C[C@@H]1C [Example 13-13],+ (Compounds that were measured as having a total concentration in the brain of at least 60 ng/g are indicated as “+”)
12,C=CC(=O)N1CCN(c2nc(=O)n3c4c(c(-c5ccc(F)cc5F)c(C(F)(F)F)cc24)SC[C@@H]3COC)CC1 [Example 13-14],+ (Compounds that were measured as having a total concentration in the brain of at least 60 ng/g are indicated as “+”)
13,C=CC(=O)N1CCN(c2nc(=O)n3c4c(c(-c5c(C)cc(F)cc5F)c(C(F)(F)F)cc24)SC[C@@H]3COC)CC1 [Example 13-16],+ (Compounds that were measured as having a total concentration in the brain of at least 60 ng/g are indicated as “+”)
14,C=CC(=O)N1C[C@H](C)N(c2nc(=O)n3c4c(c(-c5ccc(F)cc5F)c(Cl)cc24)SCC3)C[C@H]1C [Example 13-18],+ (Compounds that were measured as having a total concentration in the brain of at least 60 ng/g are indicated as “+”)
15,C=CC(=O)N1[C@H](C)CN(c2nc(=O)n3c4c(c(-c5cc(I)c(F)cc5F)c(C(F)(F)F)cc24)SC[C@@H]3COC)C[C@@H]1C [Example 13-19],+ (Compounds that were measured as having a total concentration in the brain of at least 60 ng/g are indicated as “+”)
16,C=CC(=O)N1[C@H](C)CN(c2nc(=O)n3c4c(c(-c5ccccc5)c(C(F)(F)F)cc24)SC[C@@H]3COC)C[C@@H]1C [Example 13-20],+ (Compounds that were measured as having a total concentration in the brain of at least 60 ng/g are indicated as “+”)
17,C=CC(=O)N1CCN(c2nc(=O)n3c4c(c(-c5ccc(F)cc5F)c(C(F)(F)F)cc24)SCC3)[C@@H](C)C1 [Example 13-21],+ (Compounds that were measured as having a total concentration in the brain of at least 60 ng/g are indicated as “+”)
18,C=CC(=O)N1[C@H](C)CN(c2nc(=O)n3c4c(c(-c5ccc(F)cc5)c(C(F)(F)F)cc24)SC[C@@H]3CN2CCN(C3CC3)CC2)C[C@@H]1C [Example 13-22],+ (Compounds that were measured as having a total concentration in the brain of at least 60 ng/g are indicated as “+”)
19,C=CC(=O)N1C[C@H](C)N(c2nc(=O)n3c4c(c(-c5cc(Br)c(F)cc5F)c(C(F)(F)F)cc24)SCC2(COC2)C3)C[C@H]1C [Example 13-23],+ (Compounds that were measured as having a total concentration in the brain of at least 60 ng/g are indicated as “+”)
20,C=CC(=O)N1[C@H](C)CN(c2nc(=O)n3c4c(c(-c5cc(Cl)c(F)cc5F)c(C(F)(F)F)cc24)SC[C@@H](OC)C3)C[C@@H]1C [Example 13-24],+ (Compounds that were measured as having a total concentration in the brain of at least 60 ng/g are indicated as “+”)
21,C=CC(=O)N1CCN(c2nc(=O)n3c4c(c(-c5ccc(F)c(Cl)c5)c(C(F)(F)F)cc24)SC[C@@H](OC)C3)CC1 [Example 13-25],+ (Compounds that were measured as having a total concentration in the brain of at least 60 ng/g are indicated as “+”)
22,C=CC(=O)N1[C@H](C)CN(c2nc(=O)n3c4c(c(-c5ccc(F)cc5F)c(C(F)(F)F)cc24)SC[C@@H]3CN2CCN(C3CC3)CC2)C[C@@H]1C [Example 13-26],+ (Compounds that were measured as having a total concentration in the brain of at least 60 ng/g are indicated as “+”)
23,C=CC(=O)N1CCN(c2nc(=O)n3c4c(c(-c5cc(Cl)c(F)cc5F)c(Cl)cc24)SC[C@@H]3CN2CCN(C3CC3)CC2)[C@@H](C)C1 [Example 13-27],+ (Compounds that were measured as having a total concentration in the brain of at least 60 ng/g are indicated as “+”)
24,C=CC(=O)N1[C@H](C)CN(c2nc(=O)n3c4c(c(-c5cc(Cl)c(F)cc5F)c(C(F)(F)F)cc24)SC[C@@H]3CN2CCN(C3CC3)CC2)C[C@@H]1C [Example 13-28],+ (Compounds that were measured as having a total concentration in the brain of at least 60 ng/g are indicated as “+”)
25,C=CC(=O)N1C[C@H](C)N(c2nc(=O)n3c4c(c(-c5ccc(F)cc5F)c(C(F)(F)F)cc24)SC[C@@H]3CN2CCN(C3CC3)CC2)C[C@H]1C [Example 13-29],+ (Compounds that were measured as having a total concentration in the brain of at least 60 ng/g are indicated as “+”)
